Like-named read-outs stand apart in the source and are kept apart here.
Columns and labels:
[1] = molecular target: T1, HCV NS5B RNA-dependent RNA polymerase (1b-BKΔ55) (Hepatitis C virus genotype 1b, UniProt P26663); test: Inhibition of HCV NS5B polymerase by nucleoside triphosphate analogs (radiolabeled nucleotide incorporation assay); type: biochemical
T1 construct: 5 nM NS5B (1b-BKΔ55) enzyme
Method: To measure inhibition of the enzymatic activity of the HCV NS5B RNA-dependent RNA polymerase by the nucleoside triphosphate compounds of the present invention, a radiolabeled nucleotide incorporation assay was used. This assay is a modified version of the assay described in International Publication No. WO2002/057287. Briefly, 50 μL reactions containing 20 mM HEPES (pH 7.3); 7.5 mM DTT; 20 units/mL RNasIN; 1 μM each of ATP, GTP, UTP and CTP; 20 μCi/mL [^33P]-CTP; 10 mM MgCl; 60 mM NaCl; 100 μg/mL BSA; 0.021 μM DCoH heteropolymer RNA template; and 5 nM NS5B (1b-BKΔ55) enzyme are incubated at room temperature for 1 hour. The assay is then terminated by the addition of 500 mM EDTA (50 μL). The reaction mixture is transferred to a Millipore DE81 filter plate and the incorporation of labeled CTP is determined using Packard TopCount. Compound IC50 values can then be calculated from experiments with 10 serial 3-fold dilutions of the inhibitor in duplicate. The intrinsic potency (Ki) of an NTP inhibitor is derived from its NS5B IC50 using the Cheng-Prusoff equation for a competitive inhibitor, as described in Cheng et al., Biochem Pharmacol 22:3099-3108 (1973): Ki=IC50/(1+[S]/Km), where [S]=1 μM, and Km is the concentration of cognate NTP yielding half-maximal enzyme activity in the assay absent exogenous inhibitors.
Data was obtained using this method for the NTP analogs of selected compounds below of the present invention, and is set forth below.

[2] = tested on: HCV replicon cells (1b-Con1); test: Replicon activity assay (replicon RNA level by real-time RT-PCR); type: cell-based; settings: Hepatitis C virus, 72 h, read-out: Replicon (1b) EC50
replicon cells (1b-Con1) = test: Cytotoxicity in replicon cells (MTS assay); settings: CC50, MTS assay, three days post dosing

T1 sequence (P26663 2420-2955, stated change not applied): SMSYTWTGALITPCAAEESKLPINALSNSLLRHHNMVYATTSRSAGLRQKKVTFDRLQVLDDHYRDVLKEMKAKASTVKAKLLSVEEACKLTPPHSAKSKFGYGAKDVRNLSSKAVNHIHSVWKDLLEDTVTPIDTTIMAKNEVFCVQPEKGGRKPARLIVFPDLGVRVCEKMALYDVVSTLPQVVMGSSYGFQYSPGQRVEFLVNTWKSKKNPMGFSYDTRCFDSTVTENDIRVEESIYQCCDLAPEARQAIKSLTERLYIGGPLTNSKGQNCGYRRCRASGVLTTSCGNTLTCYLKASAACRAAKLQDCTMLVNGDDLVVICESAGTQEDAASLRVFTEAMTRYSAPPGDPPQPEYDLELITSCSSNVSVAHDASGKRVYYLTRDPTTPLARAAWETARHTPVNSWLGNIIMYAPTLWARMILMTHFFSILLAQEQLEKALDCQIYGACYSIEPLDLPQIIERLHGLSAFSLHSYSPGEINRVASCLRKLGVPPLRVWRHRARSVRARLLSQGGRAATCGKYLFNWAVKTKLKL

Row | SMILES | Ki [1] [nM] | EC50 ([2]; 1b-Con1 replicon cells, three days post-dosing) [nM] | Cytotoxicity (replicon cells (1b-Con1)) [µM] | EC50 [2] [nM]
1 | C#C[C@@]1(O)[C@H](O)[C@@H](COP(=O)(O)OP(=O)(O)OP(=O)(O)O)O[C@H]1n1ccc(=O)[nH]c1=O | 36 |  |  | 
2 | C#C[C@]1(O)[C@H](O)[C@@H](COP(=O)(O)OP(=O)(O)OP(=O)(O)O)O[C@H]1n1ccc(=O)[nH]c1=O | ~19000 |  |  | 
3 | CC#C[C@@]1(O)[C@H](O)[C@@H](COP(=O)(O)OP(=O)(O)OP(=O)(O)O)O[C@H]1n1ccc(=O)[nH]c1=O | 58 |  |  | 
4 | C#C[C@@]1(O)[C@@H]2OP(=O)(OC(C)C)OC[C@H]2O[C@H]1n1ccc(=O)[nH]c1=O (single isomer, unassigned) |  | 21000 | >100 | 
5 | C#C[C@@]1(N)[C@H](O)[C@@H](COP(=O)(O)OP(=O)(O)OP(=O)(O)O)O[C@H]1n1ccc(=O)[nH]c1=O | 1200 |  |  | 
6 | CC#C[C@]1(O)[C@H](O)[C@@H](COP(=O)(O)OP(=O)(O)OP(=O)(O)O)O[C@H]1n1ccc(=O)[nH]c1=O | ~12000 |  |  | 
7 | C#C[C@@]1(O)[C@H](O)[C@@H](COP(=O)(N[C@@H](C)C(=O)OC(C)C)Oc2ccccc2)O[C@H]1n1ccc(=O)[nH]c1=O (single isomer, unassigned) |  |  | >100 | 90
8 | CC(C)OC(=O)[C@H](C)NP(=O)(OC[C@H]1O[C@@H](n2ccc(=O)[nH]c2=O)[C@@](O)(C#CC2CC2)[C@@H]1O)Oc1ccccc1 (stereo partly shown) |  |  | 14.2 | 1100
9 | CC#C[C@@]1(F)[C@H](O)[C@@H](COP(=O)(N[C@@H](C)C(=O)OC(C)C)Oc2ccccc2)O[C@H]1n1ccc(=O)[nH]c1=O (stereo partly shown) |  |  | 74.4 | 45700
10 | CC(C)OC(=O)[C@H](C)NP(=O)(OC[C@H]1O[C@@H](n2ccc(=O)[nH]c2=O)[C@@](O)(C#CC(F)(F)F)[C@@H]1O)Oc1ccccc1 (stereo partly shown) |  |  | 40.7 | 25200
11 | C#C[C@@]1(O)[C@H](OC(=O)C(C)C)[C@@H](COP(=O)(N[C@@H](C)C(=O)OC(C)C)Oc2ccccc2)O[C@H]1n1ccc(=O)[nH]c1=O (single isomer, unassigned) |  |  | >100 | 100
12 | CC#C[C@]1(O)[C@H](O)[C@@H](COP(=O)(N[C@@H](C)C(=O)OC(C)C)Oc2ccccc2)O[C@H]1n1ccc(=O)[nH]c1=O (single isomer, unassigned) |  |  | >100 | 940

From patent publication US9732111B2, “2′-alkynyl substituted nucleoside derivatives and methods of use thereof for the treatment of viral diseases” (Merck Sharp & Dohme Corp., priority 2012, dated 2017)
